Test results: patent publication US20260297102A1, “HETEROCYCLIC COMPOUNDS AS PARP1 INHIBITORS” (Synnovation Therapeutics, Inc., priority 2023, published 2026)

Target: T1, PARP1 (Homo sapiens, UniProt P09874)
T1 construct: HeLa cells (wide-type with PARP1 gene) were purchased from ATCC; host or cells: HeLa
Assay: In-Cell Western Measurement of PARylation in PARP1 WT and Knockout Cells (HeLa_WT)
Type: cell-based
Conditions: HeLa cells (wild-type PARP1); suppression of hydrogen peroxide-induced PARylation; 60 min pre-treatment, 10 mM H2O2 for 15 min; read-out: HeLa_WT_IC50
Method: The purpose of this cell-based assay is to measure the potency and selectivity of synthesized PARP inhibitors in suppressing hydrogen peroxide-induced PARylation in cells with and without PARP1 expression. Several cell lines were used in this assay. HeLa cells (wide-type with PARP1 gene) were purchased from ATCC. The HAP1 cell line without the PARP1 gene (#HZGHC003943c006) was purchased from Horizon Discovery. Cells were cultured using complete medium containing 10% fetal bovine serum. One day before the assay, cells were seeded in 96-well plates at the density of 20,000 cells per well in 80 uL complete medium. Compounds were dissolved using DMSO and diluted to the working concentrations using complete medium. Cells were pre-treated with compounds for 60 min and then stimulated with 10 mM hydrogen peroxide for 15 min. After stimulation, cells were immediately fixed using ice-cold methanol for 20 min. After fixation, cells were washed using 1×PBST buffer for 3 times, 5 min each time, to eliminate residual methanol. Cells were blocked for 1 h at room temperature in blocking buffer (10% goat serum, 1% BSA, 0.1% Triton X-100 in PBST). Primary antibody was diluted in blocking buffer at 50 uL per well. Cells were incubated with the primary antibody (Adipogen, AG-20T-0001-M001, 1:300) at 4° C. for 18 h. The wells were then washed using 1×PBST for 3 times, 5 min each time. IRDye® 680RD Goat anti-Mouse IgG (H+L) secondary antibody was diluted at 1/1000 using the diluent buffer and added at 50 uL per well. Secondary antibody incubation was for 1 h at room temperature. Cells were then washed using 1×PBST for 3 times, 5 min each time. The signal was detected and analyzed using LI-COR Odyssey DLx Imaging system. Data were collected and further processed using GraphPad Prism for IC50 estimation.

T1 sequence (P09874 whole entry): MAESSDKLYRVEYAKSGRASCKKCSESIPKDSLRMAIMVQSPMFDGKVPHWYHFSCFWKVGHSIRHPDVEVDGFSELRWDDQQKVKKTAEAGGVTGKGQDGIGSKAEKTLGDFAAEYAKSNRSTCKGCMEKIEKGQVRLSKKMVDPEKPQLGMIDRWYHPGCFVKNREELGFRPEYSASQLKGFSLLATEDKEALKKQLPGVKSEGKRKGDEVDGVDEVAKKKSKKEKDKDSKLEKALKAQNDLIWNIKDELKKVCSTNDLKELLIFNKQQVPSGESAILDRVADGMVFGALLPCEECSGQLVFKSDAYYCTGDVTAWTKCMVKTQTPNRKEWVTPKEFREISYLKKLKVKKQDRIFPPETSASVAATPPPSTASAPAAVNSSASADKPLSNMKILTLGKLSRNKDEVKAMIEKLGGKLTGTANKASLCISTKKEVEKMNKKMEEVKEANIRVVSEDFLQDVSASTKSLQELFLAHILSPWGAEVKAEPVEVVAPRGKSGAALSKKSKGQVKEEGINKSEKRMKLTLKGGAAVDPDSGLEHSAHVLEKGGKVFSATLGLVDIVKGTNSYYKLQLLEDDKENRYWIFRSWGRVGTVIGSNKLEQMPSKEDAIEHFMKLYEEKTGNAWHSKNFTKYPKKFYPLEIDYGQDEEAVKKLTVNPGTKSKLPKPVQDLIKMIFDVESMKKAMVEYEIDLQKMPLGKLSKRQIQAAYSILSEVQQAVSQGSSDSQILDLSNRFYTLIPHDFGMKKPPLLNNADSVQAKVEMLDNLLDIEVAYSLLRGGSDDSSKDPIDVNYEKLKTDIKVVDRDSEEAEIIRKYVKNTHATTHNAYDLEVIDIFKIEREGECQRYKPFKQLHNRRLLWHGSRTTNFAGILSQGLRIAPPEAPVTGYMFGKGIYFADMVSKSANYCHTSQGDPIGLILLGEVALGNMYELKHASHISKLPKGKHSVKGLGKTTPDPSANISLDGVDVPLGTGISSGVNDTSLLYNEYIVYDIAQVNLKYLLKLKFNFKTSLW

SMILES | IC50 [µM]
CNC(=O)c1ccc(N2CCN(Cc3cc4nn5c6c4c(c3F)NC(=O)N6CCC5)CC2)c(C)n1 [Compound 1, 5-(4-((7-Fluoro-9-oxo-2,3,8,9-tetrahydro-1H-3a,4,8,9a-tetraazacyclopenta[def]phenanthren-6-yl)methyl)piperazin-1-yl)-N,6-dimethylpicolinamide] | 0.01 to 0.1
Cc1nc(C(=O)NC2CC2)ccc1N1CCN(Cc2cc3nn4c5c3c(c2F)NC(=O)N5CCC4)CC1 [Compound 2, N-Cyclopropyl-5-(4-((7-fluoro-9-oxo-2,3,8,9-tetrahydro-1H-3a,4,8,9a-tetraazacyclopenta[def]phenanthren-6-yl)methyl)piperazin-1-yl)-6-methylpicolinamide] | 0.01 to 0.1
CNC(=O)c1ccc(N2CCN(Cc3cc4ncc5c6c4c(c3F)NC(=O)N6CCO5)CC2)c(C)n1 [Compound 3, 5-(4-((6-Fluoro-4-oxo-2,3,4,5-tetrahydro-1-oxa-3a,5,9-triazapyren-7-yl)methyl)piperazin-1-yl)-N,6-dimethylpicolinamide] | ≤ 0.01
Cc1nc(C(=O)NC2CC2)ccc1N1CCN(Cc2cc3ncc4c5c3c(c2F)NC(=O)N5CCO4)CC1 [Compound 4, N-Cyclopropyl-5-(4-((6-fluoro-4-oxo-2,3,4,5-tetrahydro-1-oxa-3a,5,9-triazapyren-7-yl)methyl)piperazin-1-yl)-6-methylpicolinamide] | ≤ 0.01
CNC(=O)c1ccc(N2CCN(Cc3cc4ncc5c6c4c(c3F)NC(=O)N6CCC5)CC2)c(C)n1 [Compound 5, 5-(4-((7-Fluoro-5-oxo-2,3,5,6-tetrahydro-1H-[1,6]naphthyridino[1,8,7-cde]quinazolin-8-yl)methyl)piperazin-1-yl)-N,6-dimethylpicolinamide] | ≤ 0.01
Cc1nc(C(=O)NC2CC2)ccc1N1CCN(Cc2cc3ncc4c5c3c(c2F)NC(=O)N5CCC4)CC1 [Compound 6, N-Cyclopropyl-5-(4-((7-fluoro-5-oxo-2,3,5,6-tetrahydro-1H-[1,6]naphthyridino[1,8,7-cde]quinazolin-8-yl)methyl)piperazin-1-yl)-6-methylpicolinamide] | ≤ 0.01
CCN1C(=O)Nc2c(F)c(CN3CCN(c4ccc(C(=O)NCCO)nc4C)CC3)cc3ncnc1c23 [Compound 7, 5-(4-((3-Ethyl-9-fluoro-2-oxo-2,3-dihydro-1H-pyrimido[4,5,6-de]quinazolin-8-yl)methyl)piperazin-1-yl)-N-(2-hydroxyethyl)-6-methylpicolinamide] | ≤ 0.01
CCN1C(=O)Nc2c(F)c(CN3CCN(c4ccc(C(=O)NCCC#N)nc4C)CC3)cc3ncnc1c23 [Compound 8, N-(2-cyanoethyl)-5-(4-((3-ethyl-9-fluoro-2-oxo-2,3-dihydro-1H-pyrimido[4,5,6-de]quinazolin-8-yl)methyl)piperazin-1-yl)-6-methylpicolinamide] | ≤ 0.01
CCN1C(=O)Nc2c(F)c(CN3CCN(c4ccc(C(=O)NCC#N)nc4C)CC3)cc3ncnc1c23 [Compound 9, N-(cyanomethyl)-5-(4-((3-ethyl-9-fluoro-2-oxo-2,3-dihydro-1H-pyrimido[4,5,6-de]quinazolin-8-yl)methyl)piperazin-1-yl)-6-methylpicolinamide] | ≤ 0.01
CCN1C(=O)Nc2c(F)c(CN3CCN(c4ccc(C(=O)N[C@H]5C[C@H](O)C5)nc4C)CC3)cc3ncnc1c23 [Compound 10, 5-(4-((3-Ethyl-9-fluoro-2-oxo-2,3-dihydro-1H-pyrimido[4,5,6-de]quinazolin-8-yl)methyl)piperazin-1-yl)-N-((1r,3r)-3-hydroxycyclobutyl)-6-methylpicolinamide] | ≤ 0.01
CCN1C(=O)Nc2cc(CN3CCN(c4ccc(C(=O)NCCO)nc4C)CC3)cc3ncnc1c23 [Compound 13, 5-(4-((3-Ethyl-2-oxo-2,3-dihydro-1H-pyrimido[4,5,6-de]quinazolin-8-yl)methyl)piperazin-1-yl)-N-(2-hydroxyethyl)-6-methylpicolinamide] | ≤ 0.01

Second part, the molecule after the results:

IC50 [µM] | SMILES
≤ 0.01 | CCN1C(=O)Nc2cc(CN3CCN(c4ccc(C(=O)NCCC#N)nc4C)CC3)cc3ncnc1c23 [Compound 14, N-(2-cyanoethyl)-5-(4-((3-ethyl-2-oxo-2,3-dihydro-1H-pyrimido[4,5,6-de]quinazolin-8-yl)methyl)piperazin-1-yl)-6-methylpicolinamide]
≤ 0.01 | CCN1C(=O)Nc2cc(CN3CCN(c4ccc(C(=O)NCC#N)nc4C)CC3)cc3ncnc1c23 [Compound 15, N-(cyanomethyl)-5-(4-((3-ethyl-2-oxo-2,3-dihydro-1H-pyrimido[4,5,6-de]quinazolin-8-yl)methyl)piperazin-1-yl)-6-methylpicolinamide]
≤ 0.01 | CCN1C(=O)Nc2cc(CN3CCN(c4ccc(C(=O)NC5CC5)nc4C)CC3)cc3ncnc1c23 [Compound 16, N-cyclopropyl-5-(4-((3-ethyl-2-oxo-2,3-dihydro-1H-pyrimido[4,5,6-de]quinazolin-8-yl)methyl)piperazin-1-yl)-6-methylpicolinamide]
≤ 0.01 | CCN1C(=O)Nc2cc(CN3CCN(c4ccc(C(=O)NC5(C#N)CC5)nc4C)CC3)cc3ncnc1c23 [Compound 17, N-(1-cyanocyclopropyl)-5-(4-((3-ethyl-2-oxo-2,3-dihydro-1H-pyrimido[4,5,6-de]quinazolin-8-yl)methyl)piperazin-1-yl)-6-methylpicolinamide]
≤ 0.01 | CCN1C(=O)Nc2cc(CN3CCN(c4ccc(C(=O)NC5CCC5)nc4C)CC3)cc3ncnc1c23 [Compound 18, N-cyclobutyl-5-(4-((3-ethyl-2-oxo-2,3-dihydro-1H-pyrimido[4,5,6-de]quinazolin-8-yl)methyl)piperazin-1-yl)-6-methylpicolinamide]
≤ 0.01 | CCN1C(=O)Nc2cc(CN3CCN(c4ccc(C(=O)N[C@H]5C[C@@H](O)C5)nc4C)CC3)cc3ncnc1c23 [Compound 19, 5-(4-((3-ethyl-2-oxo-2,3-dihydro-1H-pyrimido[4,5,6-de]quinazolin-8-yl)methyl)piperazin-1-yl)-N-((1s,3s)-3-hydroxycyclobutyl)-6-methylpicolinamide]
≤ 0.01 | CCN1C(=O)Nc2cc(CN3CCN(c4ccc(C(=O)N[C@H]5C[C@H](O)C5)nc4C)CC3)cc3ncnc1c23 [Compound 20, 5-(4-((3-ethyl-2-oxo-2,3-dihydro-1H-pyrimido[4,5,6-de]quinazolin-8-yl)methyl)piperazin-1-yl)-N-((1r,3r)-3-hydroxycyclobutyl)-6-methylpicolinamide]
≤ 0.01 | CCN1C(=O)Nc2cc(CN3CCN(c4ccc(C(=O)N[C@H]5[C@@H]6COC[C@@H]65)nc4C)CC3)cc3ncnc1c23 [Compound 21, N-((1R,5S,6r)-3-oxabicyclo[3.1.0]hexan-6-yl)-5-(4-((3-ethyl-2-oxo-2,3-dihydro-1H-pyrimido[4,5,6-de]quinazolin-8-yl)methyl)piperazin-1-yl)-6-methylpicolinamide]
≤ 0.01 | CCN1C(=O)Nc2cc(CN3CCN(c4ccc(C(=O)N[C@H]5C[C@H](C#N)C5)nc4C)CC3)cc3ncnc1c23 [Compound 24, N-((1r,3r)-3-cyanocyclobutyl)-5-(4-((3-ethyl-2-oxo-2,3-dihydro-1H-pyrimido[4,5,6-de]quinazolin-8-yl)methyl)piperazin-1-yl)-6-methylpicolinamide]
≤ 0.01 | CCN1C(=O)Nc2cc(CN3CCN(c4ccc(C(=O)N[C@H]5C[C@@H](C#N)C5)nc4C)CC3)cc3ncnc1c23 [Compound 25, N-((1s,3s)-3-cyanocyclobutyl)-5-(4-((3-ethyl-2-oxo-2,3-dihydro-1H-pyrimido[4,5,6-de]quinazolin-8-yl)methyl)piperazin-1-yl)-6-methylpicolinamide]
≤ 0.01 | CCN1C(=O)Nc2cc(CN3CCN(c4ccc(C(=O)NC5(CC#N)CC5)nc4C)CC3)cc3ncnc1c23 [Compound 26, N-(1-(cyanomethyl)cyclopropyl)-5-(4-((3-ethyl-2-oxo-2,3-dihydro-1H-pyrimido[4,5,6-de]quinazolin-8-yl)methyl)piperazin-1-yl)-6-methylpicolinamide]
